In US10046050B2, “Targeting immunotherapy for amyloidosis” (UNIVERSITY OF TENNESSEE RESEARCH FOUNDATION, priority 2014, dated 2018):

Assays:
AA amyloid = biological target: T1, AA amyloid (Mus musculus, UniProt P05367); assay: In vivo binding of ^125I-p66 in AA mice (microautoradiography, SPECT/CT, biodistribution)
T1 construct: from tissue; host or cells: organs of living H2-L^d-huIL-6 Tg Balb/c mice after AEF injection
T1 sequence (P05367 20-94 limits assumed): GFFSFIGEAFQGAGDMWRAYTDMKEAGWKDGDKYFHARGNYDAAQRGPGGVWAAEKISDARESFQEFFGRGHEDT
Experimental: Systemic visceral AA amyloidosis was induced in H2-L^d-huIL-6 Tg Balb/c transgenic mice that constitutively express the human interleukin-6 transgene, by iv injection of 10 μg of purified, splenic AA amyloid (amyloid enhancing factor; AEF) in 100 μL of sterile phosphate-buffered saline (PBS). Peptide p66 was evaluated in mice at 4-6 wk post AEF injection when amyloid load was significant.
Imaging was performed using WT or AA amyloid mice (n=3) that were injected with ˜5 μg of ^125I-p66, 125 μCi in the lateral tail vein. After the appropriate uptake time (data for 4 and 72 h pi shown), mice were euthanized by isoflurane inhalation overdose. SPECT images were acquired using an Inveon trimodality imaging platform (Siemens Preclinical Solution, Knoxville, Tenn.) running Inveon Acquisition Workplace software (ver. 2.0). Low energy (^125I; 25-45 keV) gamma photons were acquired at each of 60, 16-sec projections with 90 mm of bed travel. […]
Samples of liver, spleen, pancreas, kidneys, small and large intestines, stomach and heart were harvested post mortem from every mouse undergoing imaging with ^125I-p66. A sample of each was placed into a tared, plastic vial, weighed and the ^125I radioactivity measured using an automated Wizard 3 gamma counter (1480 Wallac Gamma Counter, Perkin Elmer). The biodistribution data were expressed as % injected dose/g tissue (% ID/g). […]

[1] = tested on: synthetic and naturally-occurring amyloid samples; assay: Pull down assay of ^125I-labeled peptides; format: binding
Experimental: To evaluate the binding of p66 and p5+14 to synthetic and naturally-occurring amyloid, peptides p66 or p5+14 were radiolabeled with iodine-125 (I-125, ^125I) using oxidation with chloramine T (1 mg/ml in water freshly made. Free 1-125 was removed from the reaction mixture by size exclusion chromatography using a Sephadex G-25 solid phase and a 0.1% (w/v) gelatin in PBS mobile phase. Fractions of ˜250 μl were collected and the radioactivity in each measured using a gamma counter (Packard Cobra II auto-gamma counter). Peptide fractions with peak radioactivity were pooled and used for the “pull-down” assays.
For the pull down assay, ^125I-labeled peptide binding to murine: (m) AA and wild type (WT) liver homogenates (25 μl); rVλ6Wil (AL), Aβ(1-40) and islet amyloid polypeptide (IAPP) synthetic fibrils (25 μg), and; transthyretin-associated (ATTR), ALκ4-Cab and ALλ1-Ship human amyloid extracts (50 μg). The ^125I-peptides were prepared in PBST (0.15 M NaCl) or PBST with 1 M NaCl. Ten μl (˜5 ng, ˜100,000 counts per min [cpm]) of the ^125I-peptide solution was added to each test sample in a 200 μl volume. The reaction mixtures were rotated for 1 h at RT, then centrifuged twice at 16,000×g for 10 min. After each step the supernatants were removed and collected in test tubes. The pellets, obtained following the second spin were resuspended in PBST. The radioactivity in both the supernatant and pellet samples were measured using a Packard Cobra II auto-gamma counter. The bound peptide, expressed as % total was calculated according to: Bound peptide (% total)=(Pellet cpm)/(Pellet cpm+Supernatant cpm)

- time post injection at which amyloid in the liver could be readily visualized by SPECT imaging (AA amyloid; AA mice, ^125I-p66): at least 72 h
- binding of radiolabeled peptide to amyloid deposits in vivo (AA amyloid; mice with systemic AA amyloidosis, iv, autoradiography vs Congo red): specifically bound the amyloid deposits
- binding of ^125I-peptide to amyloid samples ([1]; 0.15 M NaCl): bound equally well
- binding of ^125I-peptide to amyloid samples ([1]; 1.0 M NaCl): bound equally well
Substance: KAQKAQAKQAKQAQKAQKAQAKQAKQAQKAQKAQAKQAKQ SVTVVT KHYAAFPENLLI [p66]
